Common to all, as to format: cell-based
Holding throughout (details): Xenopus oocytes

Test [1] has as its target T1, TREK-1/AAK M4-C (Mus musculus, UniProt O88454+P97438).
T1 construct: Y272 (TREK-1/AAK M4-C); expressed in transfected cells; host or cells: Xenopus laevis oocytes, mRNA injected; chimera built by Gibson assembly
T1 sequence (P97438+O88454 with tags, fused parts or gaps P97438:V273L/P97438:V280F/P97438:A287S/P97438:S290T/P97438:M291T/P97438:D294N): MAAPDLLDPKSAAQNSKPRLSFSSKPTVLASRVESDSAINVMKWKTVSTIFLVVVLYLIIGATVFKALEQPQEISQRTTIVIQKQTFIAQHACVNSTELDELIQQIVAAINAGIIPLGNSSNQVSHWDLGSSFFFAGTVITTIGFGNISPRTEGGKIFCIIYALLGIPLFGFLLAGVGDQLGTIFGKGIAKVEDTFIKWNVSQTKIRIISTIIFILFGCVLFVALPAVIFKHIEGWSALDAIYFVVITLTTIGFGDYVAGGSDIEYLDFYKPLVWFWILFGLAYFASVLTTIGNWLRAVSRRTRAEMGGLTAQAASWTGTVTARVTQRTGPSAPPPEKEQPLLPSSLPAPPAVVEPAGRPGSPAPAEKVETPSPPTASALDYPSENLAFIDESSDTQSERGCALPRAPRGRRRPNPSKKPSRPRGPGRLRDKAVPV
The test can be described thus: TEVC of chimera TREK-1/AAK M4-C.

The target of test [2] is T2, TREK-1/AAK M3-C (Mus musculus, UniProt O88454+P97438).
T2 construct: Trp199 (TREK-1/AAK M3-C); expressed in transfected cells; host or cells: Xenopus laevis oocytes, mRNA injected; chimera built by Gibson assembly
T2 sequence (P97438+O88454 with tags, fused parts or gaps P97438:N200H/P97438:S202P/P97438:Q203P/P97438:T204G/P97438:K205L/P97438:I206V/P97438:I208S/P97438:I209L/P97438:T211A/P97438:I212V/P97438:I213L/P97438:I215L/P97438:F217I/P97438:V220L/P97438:A224L/P97438:L225T/P97438:A227T/P97438:V228F/P97438:I229V/P97438:K231S/P97438:H232Y/P97438:I233M/P97438:G235S/P97438:A238K/P97438:D240E/P97438:V246I/P97438:I247V/P97438:I252V/P97438:A259P/P97438:G261D/P97438:S262G/P97438:D263T/P97438:I264G/P97438:E265Q/P97438:Y266N/P97438:L267S/P97438:D268P/P97438:F269A/P97438:K271Q/P97438:V273L/P97438:V280F/P97438:A287S/P97438:S290T/P97438:M291T/P97438:D294N): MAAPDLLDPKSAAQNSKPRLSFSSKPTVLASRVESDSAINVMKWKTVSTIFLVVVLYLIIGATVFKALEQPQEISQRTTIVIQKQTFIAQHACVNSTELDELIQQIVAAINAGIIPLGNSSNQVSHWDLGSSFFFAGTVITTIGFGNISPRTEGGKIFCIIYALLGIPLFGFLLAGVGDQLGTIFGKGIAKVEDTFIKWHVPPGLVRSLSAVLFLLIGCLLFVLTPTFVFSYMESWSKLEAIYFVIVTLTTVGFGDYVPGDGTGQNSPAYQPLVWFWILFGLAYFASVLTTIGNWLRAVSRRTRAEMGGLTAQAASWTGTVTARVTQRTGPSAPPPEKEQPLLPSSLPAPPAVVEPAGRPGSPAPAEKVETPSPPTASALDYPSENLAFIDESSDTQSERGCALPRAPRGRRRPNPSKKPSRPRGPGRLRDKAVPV
Put plainly: TEVC of chimera TREK-1/AAK M3-C.

The target of test [3] is T3, TRAAK/EK-1 M3-C (Mus musculus, UniProt O88454+P97438, A173T/A231F/D223G/E202D/F190V/F242V/G166T/G224S/G226I/H162N/I179F/I208V/K200A/L167K/L171I/L175I/L177I/L182V/L186A/L235V/M195I/N228Y/N256D/P164S/P165Q/P221A/P230D/Q227E/Q233K/S170I/S193K/S197G/S229L/S249A/T187L/T189A/T225D/T252S/T253M/V168I/V174I/V191I/V209I/V214I/Y194H).
T3 construct: Trp161 (TRAAK/EK-1 M3-C); expressed in transfected cells; host or cells: Xenopus laevis oocytes, mRNA injected; chimera built by Gibson assembly
Put plainly: TEVC of chimera TRAAK/EK-1 M3-C.

Molecules are shown by their SMILES.

T3 sequence (O88454+P97438 fused with the stated changes): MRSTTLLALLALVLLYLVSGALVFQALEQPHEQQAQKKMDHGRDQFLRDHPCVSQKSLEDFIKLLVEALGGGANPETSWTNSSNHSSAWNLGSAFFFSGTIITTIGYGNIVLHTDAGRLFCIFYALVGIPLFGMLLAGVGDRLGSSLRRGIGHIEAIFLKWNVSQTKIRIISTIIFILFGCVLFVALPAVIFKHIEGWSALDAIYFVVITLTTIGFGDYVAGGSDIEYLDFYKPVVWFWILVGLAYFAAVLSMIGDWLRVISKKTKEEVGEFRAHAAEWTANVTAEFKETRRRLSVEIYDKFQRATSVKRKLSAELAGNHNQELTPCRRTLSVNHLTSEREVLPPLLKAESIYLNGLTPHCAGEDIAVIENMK

In the case of `c1ccc(-c2nnn[nH]2)c(Nc2cccc3c2CCCC3)c1` [BL-1249, (5,6,7,8-tetrahydro-naphthalen-1-yl)-[2-(1H-tetrazol-5-yl)-phenyl]-amine], the EC50 in test [1] was 19 ± 3 µM; in test [2], 28 ± 2 µM; in test [3], 18 ± 2 µM.
The corresponding values for `CS(=O)(=O)Nc1ccc(C(=O)NCc2ccc(Cl)cc2Cl)cc1` [ML335] are 2 ± 0.6 µM, over 100 µM and 13 ± 2 µM.

The values above are taken from PMC6302903, “Protein and Chemical Determinants of BL-1249 Action and Selectivity for K2P Channels” (ACS Chemical Neuroscience, 2018).
